Publication PMC10814857, “Functional Classification and Interaction Selectivity Landscape of the Human SH3 Domain Superfamily” (Cells, 2024)
pKd: −log10 of the molar value. “And” between values parts separate entries of the source, which are not always exact repeats. Identical values can stand only once. Like-named read-outs stand apart in the source and are kept apart here. Peptide text beside a SMILES is read from it.

How the values were obtained:
Experiment in all cases: Fluorescence polarization SH3 domain-PRP binding
[1] = molecular target: T1, ITSN1-5 SH3 domain (aa 1155-1214) (Homo sapiens, UniProt Q15811); settings: FP, 0.2 µM fluorescein-labeled peptide, SH3 domain 0-200 µM, Tris/HCl pH 7.5, 25 °C, quadratic fit
T1 construct: 1155-1214; GST (N); made in house; host or cells: Escherichia coli CodonPlus, Rosetta, BL21(DE3)
T1 sequence (Q15811 1155-1214): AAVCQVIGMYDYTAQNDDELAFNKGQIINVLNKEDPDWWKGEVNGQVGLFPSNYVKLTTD
Description: (§1) The interaction between fluorescein-labeled proline-rich peptides (0.2 µM) and increasing concentrations of SH3 domains (ranging from 0 to 200 µM) was measured in a buffer (containing 30 mM Tris/HCl (pH 7.5), 5 mM MgCl2, and 3 mM DTT at 25 °C) in a total volume of 200 µL using a Fluoromax 4 fluorimeter in polarization mode and a quartz glass fluorescence cuvette (Hellma Ultra-Micro Cuvette 105.250-QS, Thermo Fisher Scientific, Waltham, MA USA). Excitation was performed at 470 nm and emission was measured at 560 nm. Dissociation constants (Kd) were determined by fitting the concentration-dependent binding curve to a quadratic ligand binding equation.
(§2) Fluorescence polarization measurements were performed to determine the binding affinities of SH3 domain–PRP interaction pairs from the dot blot analysis. SH3 proteins were titrated at increasing concentrations against fluorescent PRPs, which were kept at a constant concentration of 0.2 µM. GRB2-2^W193K, which is defective in the binding of PRPs such as RP1, was used as a negative control as previously described. […] The resulting data (Figure S6) allowed the evaluation of equilibrium dissociation constants (Kd) for 45 interactions between the SH3 domains and the PRPs (Figure 2B; Table S6).
(§3) Figure S6. Interactions of the SH3 domains with fluorescent PRPs measured by fluorescence polarization.
(§4) Fluorescent peptides (0.2 µM) were titrated with increasing concentrations of the corresponding SH3 domains.
(§5) GRB2-2W193K, defective in the binding of PRPs such as RP1, was used as a negative control as previously described. The x-axis represents SH3 domain concentrations as GST fusion proteins in µM, while the y-axis represents fluorescence polarization. The equilibrium dissociation constants (Kd) for the respective measurements were determined by fitting the titration curves to a quadratic ligand-binding equation (solid lines). All Kd values are […]
(§6) Error bars are derived from the fitting errors.

[2] = molecular target: T2, NCK1-1 SH3 domain (aa 2-61) (Homo sapiens, UniProt P16333); settings: FP, 0.2 µM fluorescein-labeled peptide, SH3 domain 0-200 µM, Tris/HCl pH 7.5, 25 °C, quadratic fit; for pKd: read-out: Kd
T2 construct: 2-61; GST (N); made in house; host or cells: Escherichia coli CodonPlus, Rosetta, BL21(DE3)
Description: as §1, §2, §3, §4, §5, §6

[3] = molecular target: T3, NCK1-2 SH3 domain (aa 106-165) (Homo sapiens, UniProt P16333); settings: FP, 0.2 µM fluorescein-labeled peptide, SH3 domain 0-200 µM, Tris/HCl pH 7.5, 25 °C, quadratic fit; for pKd: read-out: Kd
T3 construct: 106-165; GST (N); made in house; host or cells: Escherichia coli CodonPlus, Rosetta, BL21(DE3)
Description: as §1, §2, §3, §4, §5, §6

[4] = molecular target: T4, NCK1-3 SH3 domain (aa 190–252) (Homo sapiens, UniProt P16333); settings: NCK1-3 (wt), FP, 0.2 µM fluorescein-labeled peptide, SH3 domain 0-200 µM, Tris/HCl pH 7.5, 25 °C, quadratic fit; for pKd: read-out: Kd
T4 construct: 190–252; GST (N); made in house; host or cells: Escherichia coli CodonPlus, Rosetta, BL21(DE3)
Description: as §1, §2, §3, §4, §5, §6

NPHP1 SH3 domain = molecular target: T5, NPHP1 SH3 domain (Homo sapiens, UniProt O15259); settings: FP, 0.2 µM fluorescein-labeled peptide, SH3 domain 0-200 µM, Tris/HCl pH 7.5, 25 °C, quadratic fit
T5 construct: GST (N); made in house; host or cells: Escherichia coli CodonPlus, Rosetta, BL21(DE3)
T5 sequence (O15259 152-212 limits assumed): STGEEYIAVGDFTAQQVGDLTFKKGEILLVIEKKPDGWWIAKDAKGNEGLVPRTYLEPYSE
Description: as §1, §2, §3, §4, §5, §6

[5] = molecular target: T6, RASA1 SH3 domain (aa 279–341) (Homo sapiens, UniProt P20936); settings: FP, 0.2 µM fluorescein-labeled peptide, SH3 domain 0-200 µM, Tris/HCl pH 7.5, 25 °C, quadratic fit
T6 construct: 279–341; GST (N); made in house; host or cells: Escherichia coli CodonPlus, Rosetta, BL21(DE3)
T6 sequence (P20936 279-341): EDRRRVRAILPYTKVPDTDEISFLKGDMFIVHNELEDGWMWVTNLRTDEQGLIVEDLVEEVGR
Description: as §1, §2, §3, §4, §5, §6

[6] = molecular target: T7, RIMBP3B-1 SH3 domain (aa 832-899) (Homo sapiens, UniProt A6NNM3); settings: FP, 0.2 µM fluorescein-labeled peptide, SH3 domain 0-200 µM, Tris/HCl pH 7.5, 25 °C, quadratic fit
T7 construct: 832-899; GST (N); made in house; host or cells: Escherichia coli CodonPlus, Rosetta, BL21(DE3)
T7 sequence (A6NNM3 832-899): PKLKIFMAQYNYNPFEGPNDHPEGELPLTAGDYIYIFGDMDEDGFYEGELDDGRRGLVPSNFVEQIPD
Description: as §1, §2, §3, §4, §5, §6

[7] = molecular target: T8, SH3GLB1 SH3 domain (aa 305-365) (Homo sapiens, UniProt Q9Y371); settings: FP, 0.2 µM fluorescein-labeled peptide, SH3 domain 0-200 µM, Tris/HCl pH 7.5, 25 °C, quadratic fit
T8 construct: 305-365; GST (N); made in house; host or cells: Escherichia coli CodonPlus, Rosetta, BL21(DE3)
T8 sequence (Q9Y371 305-365): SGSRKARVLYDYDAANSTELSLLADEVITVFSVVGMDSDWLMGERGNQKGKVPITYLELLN
Description: as §1, §2, §3, §4, §5, §6

[8] = molecular target: T9, SH3PXD2A-1 SH3 domain (aa 166-225) (Homo sapiens, UniProt Q5TCZ1); settings: FP, 0.2 µM fluorescein-labeled peptide, SH3 domain 0-200 µM, Tris/HCl pH 7.5, 25 °C, quadratic fit
T9 construct: 166-225; GST (N); made in house; host or cells: Escherichia coli CodonPlus, Rosetta, BL21(DE3)
T9 sequence (Q5TCZ1 166-225): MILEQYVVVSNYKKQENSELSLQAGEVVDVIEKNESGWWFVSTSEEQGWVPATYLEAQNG
Description: as §1, §2, §3, §4, §5, §6

[9] = molecular target: T10, SNX9 SH3 domain (aa 1-62) (Homo sapiens, UniProt Q9Y5X1); settings: FP, 0.2 µM fluorescein-labeled peptide, SH3 domain 0-200 µM, Tris/HCl pH 7.5, 25 °C, quadratic fit
T10 construct: 1-62; GST (N); made in house; host or cells: Escherichia coli CodonPlus, Rosetta, BL21(DE3)
Description: as §1, §2, §3, §4, §5, §6

[10] = molecular target: T11, SORBS1-1 SH3 domain (aa 793-852) (Homo sapiens, UniProt Q9BX66); settings: FP, 0.2 µM fluorescein-labeled peptide, SH3 domain 0-200 µM, Tris/HCl pH 7.5, 25 °C, quadratic fit
T11 construct: 793-852; GST (N); made in house; host or cells: Escherichia coli CodonPlus, Rosetta, BL21(DE3)
T11 sequence (Q9BX66 793-852): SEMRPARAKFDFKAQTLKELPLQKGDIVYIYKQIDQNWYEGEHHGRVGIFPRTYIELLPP
Description: as §1, §2, §3, §4, §5, §6

[11] = molecular target: T12, SRC SH3 domain (aa 77-140) (Homo sapiens, UniProt P12931); settings: FP, 0.2 µM fluorescein-labeled peptide, SH3 domain 0-200 µM, Tris/HCl pH 7.5, 25 °C, quadratic fit
T12 construct: 77-140; GST (N); made in house; host or cells: Escherichia coli CodonPlus, Rosetta, BL21(DE3)
Description: as §1, §2, §3, §4, §5, §6

T10 sequence (Q9Y5X1 1-62): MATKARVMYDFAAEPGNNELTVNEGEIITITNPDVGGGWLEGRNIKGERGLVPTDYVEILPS
T12 sequence (P12931 77-140 limits assumed): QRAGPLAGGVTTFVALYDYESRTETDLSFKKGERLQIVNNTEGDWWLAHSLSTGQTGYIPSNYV

Row | Structure (SMILES) | pKd [1] | pKd [2] | pKd [3] | pKd [4] | pKd (NPHP1 SH3 domain) | pKd [5] | pKd [6] | pKd [7] | pKd [8] | pKd [9] | pKd [10] | pKd [11] | Kd [2] | Kd [3] | Kd [4]
1 | CC(C)C[C@H](NC(=O)[C@@H](NC(=O)[C@@H](N)C(C)C)[C@@H](C)O)C(=O)N1CCC[C@H]1C(=O)N[C@@H](Cc1c[nH]cn1)C(=O)NCC(=O)N1CCC[C@H]1C(=O)N[C@@H](CCCNC(=N)N)C(=O)N[C@@H](CO)C(=O)N[C@@H](C)C(=O)O [Peptide P2] (H-VTLPHGPRSA-OH) | < 3.70 | < 3.70 | < 3.70 | < 3.70 | < 3.70 | < 3.70 | 4.68 | < 3.70 | 4.36 | < 3.70 | < 3.70 | < 3.70 |  |  | 
2 | CC(C)C[C@H](NC(=O)[C@@H]1CCCN1C(=O)[C@@H](NC(=O)[C@H](CCCNC(=N)N)NC(=O)[C@@H]1CCCN1C(=O)[C@H](CO)NC(=O)[C@H](CC(N)=O)NC(=O)[C@@H]1CCCN1C(=O)[C@H](C)NC(=O)[C@@H](N)CO)[C@@H](C)O)C(=O)N[C@H](C(=O)N1CCC[C@H]1C(=O)N1CCC[C@H]1C(=O)N1CCC[C@H]1C(=O)N[C@@H](C)C(=O)N[C@@H](CO)C(=O)O)[C@@H](C)O [Peptide P1] (H-SAPNSPRTPLTPPPAS-OH) | 4.64 | < 3.70 | < 3.70 | < 3.70 | < 3.70 | < 3.70 | < 3.70 | < 3.70 | < 3.70 | < 3.70 | < 3.70 | < 3.70 |  |  | 
3 | CC[C@H](C)[C@H](NC(=O)[C@H](Cc1c[nH]cn1)NC(=O)[C@@H](N)CCC(N)=O)C(=O)N1CCC[C@H]1C(=O)N[C@@H](CCCCN)C(=O)N[C@@H](CC(C)C)C(=O)N1CCC[C@H]1C(=O)N1CCC[C@H]1C(=O)N[C@@H](CCCCN)C(=O)N[C@H](C(=O)N[C@@H](Cc1ccc(O)cc1)C(=O)O)[C@@H](C)O [Peptide P10] (H-QHIPKLPPKTY-OH; N-terminus and C-terminus assumed) | < 3.70 | < 3.70 | < 3.70 | < 3.70 | < 3.70 | < 3.70 | < 3.70 | < 3.70 | < 3.70 | < 3.70 | < 3.70 | < 3.70 |  |  | 
4 | CC[C@H](C)[C@H](N)C(=O)N[C@@H](C)C(=O)NCC(=O)N1CCC[C@H]1C(=O)N1CCC[C@H]1C(=O)N[C@H](C(=O)N1CCC[C@H]1C(=O)N1CCC[C@H]1C(=O)N[C@@H](CCCNC(=N)N)C(=O)N[C@@H](CCC(N)=O)C(=O)N[C@@H](CO)C(=O)O)C(C)C [Peptide P9] (H-IAGPPVPPRQS-OH) | < 3.70 | < 3.70 | < 3.70 | 5.05 and 6.05 | < 3.70 | < 3.70 | < 3.70 | < 3.70 | < 3.70 | < 3.70 | < 3.70 | < 3.70 | do not bind | do not bind | tightly bound

Second part, the molecule after the results:

Row | pKd [1] | pKd [2] | pKd [3] | pKd [4] | pKd (NPHP1 SH3 domain) | pKd [5] | pKd [6] | pKd [7] | pKd [8] | pKd [9] | pKd [10] | pKd [11] | Kd [2] | Kd [3] | Kd [4] | Structure (SMILES)
5 | 4.64 | < 3.70 | 6.00 | 5.60 | < 3.70 | < 3.70 | < 3.70 | < 3.70 | 4.68 | < 3.70 | < 3.70 | < 3.70 |  |  |  | CC(C)[C@H](NC(=O)[C@@H]1CCCN1C(=O)[C@@H]1CCCN1C(=O)[C@H](C)NC(=O)[C@H](CCC(=O)O)NC(=O)[C@H](CS)NC(=O)[C@@H](N)CCCNC(=N)N)C(=O)N1CCC[C@H]1C(=O)N1CCC[C@H]1C(=O)N[C@@H](CCCNC(=N)N)C(=O)N[C@@H](CCCNC(=N)N)C(=O)N[C@@H](CCC(=O)O)C(=O)N[C@@H](CCCNC(=N)N)C(=O)NCC(=O)O [RP2, reference compound] (H-RCEAPPVPPRRERG-OH)
6 | < 3.70 | < 3.70 | 5.70 | 4.61 | < 3.70 | < 3.70 | < 3.70 | < 3.70 | < 3.70 | < 3.70 | < 3.70 | < 3.70 |  |  |  | CC(C)[C@H](N)C(=O)N1CCC[C@H]1C(=O)N[C@H](C(=O)N1CCC[C@H]1C(=O)N1CCC[C@H]1C(=O)N1CCC[C@H]1C(=O)N[C@H](C(=O)N1CCC[C@H]1C(=O)N1CCC[C@H]1C(=O)N[C@@H](CCCNC(=N)N)C(=O)N[C@@H](CCCNC(=N)N)C(=O)N[C@@H](CCCNC(=N)N)C(=O)O)C(C)C)C(C)C [RP1, reference compound]
